Data on six compounds can be found in patent publication US9623123B2, “Fluorescent conjugated polymers with a bodipy-based backbone and uses thereof” (Michigan Technological University, priority 2008, dated 2017).

SMILES strings stand for the structures.

This data set can be described thus: UV-visible absorption and fluorescence spectra, fluorescence quantum yields in solution. The format is physicochemical. To be noted: for Quantum yield: fluorescein reference (Example 2). On the procedure: ^1H NMR and ^13C NMR spectra were taken on a 400 MHz Varian Unity Inova spectrophotometer instrument. ^1H and ^13C NMR spectra were recorded in CDCl3, chemical shifts (δ) are given in ppm relative to solvent peaks (1H: δ 7.26; 13C: δ 77.3) as internal standard. UV spectra were taken on a Hewlett Packard 8452A Diode Array UV-visible spectrophotometer. Fluorescence spectra were recorded on a Spex Fluorolog 1681 0.22 m steady-state fluorometer. Fluorescence quantum yields of BODIPY dyes and polymers were measured in methylene chloride and DMF, and calculated by using fluorescein excited at 490 nm in 0.1 N NaOH as the reference absolute quantum efficiency (φn=85%). Molecular weights of the polymers were determined by gel permeation chromatography (“GPC”) by using a Waters Associates Model 6000A liquid chromatograph. Three American Polymer Standards Corp. Ultrastyragel columns in series with porosity indices of 10^3, 10^4, and 10^5 Å were used and housed in an oven thermostated at 30° C. Mobile phase was HPLC grade THF which was filtered and degassed by vacuum filtration through a 0.5 μm fluoropore filter prior to use. The polymers were detected by a Waters Model 440 ultraviolet absorbance detector at a wavelength of 254 nm and a Waters Model 2410 refractive index detector. Molecular weights were measured relative to polystyrene standards. An Enraf Nonius CAD-4 X-Ray diffractometer was used in the crystal structure determination. The windows program WinGX was used as the interface for the solution and refinement of the model. The data were first reduced and corrected for absorption using the psi-scans, and then solved using the program SIR2004. The model was refined using SHELXL97.
^1H NMR and ^13C NMR spectra were taken on a 400 MHz Varian Unity Inova spectrophotometer instrument. ^1H and ^13C NMR spectra were recorded in CDCl3, and chemical shifts (5) are given in ppm relative to solvent peaks (at 7.24 ppm for ^1H spectra and at 77.3 for ^13C spectra) as internal standard. UV spectra were taken on a Hewlett-Packard 8452A Diode Array UV-visible spectrophotometer. Fluorescence spectra were recorded on a Spex Fluorolog 1681 0.22 m steady-state fluorometer. Fluorescence quantum yields of BODIPY dyes and polymers were measured in methylene chloride and calculated by using fluorescein excited at 490 nm in 0.1 N NaOH as the reference (its quantum efficiency of 85%). Fluorescence lifetimes were measured on a GL-3300 Nitrogen Laser laserstrobe PTI instrument and analyzed using FeliX32 software.
^1H NMR and ^13C NMR spectra were taken on a 400 MHz Varian Unity Inova spectrophotometer instrument. ^1H and ^13C NMR spectra were recorded in CDCl3, chemical shifts (δ) are given in ppm relative to solvent peaks (^1H: δ 7.26; ^13C: δ 77.3) as internal standard. UV spectra were taken on a Hewlett Packard 8452A Diode Array UV-visible spectrophotometer. Fluorescence spectra were recorded on a Spex Fluorolog 1681 0.22 m steady-state fluorometer. Fluorescence quantum yields of BODIPY dyes and polymers were measured in methylene chloride and DMF, and calculated by using fluorescein excited at 490 nm in 0.1 N NaOH as the reference quantum efficiency (φn=85%).^30,31 Molecular weights of the polymers were determined by gel permeation chromatography (GPC) by using a Waters Associates Model 6000A liquid chromatograph. Three American Polymer Standards Corp. Ultrastyragel columns in series with porosity indices of 10^3, 10^4, and 10^5 Å were used and housed in an oven thermostated at 30° C. Mobile phase was HPLC grade THF which was filtered and degassed by vacuum filtration through a 0.5 μm fluoropore filter prior to use. The polymers were detected by a Waters Model 440 ultraviolet absorbance detector at a wavelength of 254 nm and a Waters Model 2410 refractive index detector. Molecular weights were measured relative to polystyrene standards. […]

Where [1] appears, read: CH2Cl2 solution (Table 2, Example 2).
Where [2] appears, read: DMF solution (Table 3, Example 2).

Take `COc1ccc(C2=C3C(C)=C(I)C(C)=[N+]3[B-](F)(F)n3c(C)c(I)c(C)c32)cc1` [Compound 15, 4,4-Difluoro-8-(4-methoxyphenyl)-2,6-diiodo-1,3,5,7-tetramethyl-4-bora-3a, 4a-diaza-s-indacene]: the Absorption maxima runs as follows: under setting [1], 533 nm; under setting [2], 533 nm. The compound further yielded an Emission maxima under setting [1] of 548 nm and an Emission maxima under setting [2] of 551 nm. The Quantum yield (CH2Cl2 solution) stood at 5.72% and the Quantum yield (DMF solution) came to 4.9%.

For `COc1ccc(C2=C3C(C)=CC(C)=[N+]3[B-](F)(F)n3c(C)cc(C)c32)cc1` [Compound 14, 4,4-Difluoro-8-(4-methoxyphenyl)-1,3,5,7-tetramethyl-4-bora-3a,4a-diaza-s-indacene], the Absorption maxima is reported as 500 nm under setting [1] and 500 nm under setting [2]. This compound also displayed an Emission maxima under setting [1] of 510 nm and an Emission maxima under setting [2] of 510 nm. Moreover, the Quantum yield stood at 80.1% (CH2Cl2 solution) and 71.6% (DMF solution).

In the case of `CC1=CC(C)=[N+]2C1=C(c1c(C)cccc1C)c1c(C)cc(C)n1[B-]2(F)F` [Compound 18, 4,4-Difluoro-8-(2,6-dimethylphenyl)-1,3,5,7-tetramethyl-4-bora-3a,4a-diaza-s-indacene], the Absorption maxima runs as follows: under setting [1], 501 nm; under setting [2], 502 nm. Besides, the Emission maxima reads like this: under setting [1], 510 nm; under setting [2], 510 nm. Besides, the Quantum yield was 86.7% (CH2Cl2 solution) and 73.8% (DMF solution).

As to `COc1cc(C2=C3C(C)=CC(C)=[N+]3[B-](F)(F)n3c(C)cc(C)c32)cc(OC)c1OC` [Compound 9, 4,4-Difluoro-8-(3,4,5-trimethoxyphenyl)-1,3,5,7-tetramethyl-4-bora-3a,4a-diaza-s-indacene], the Absorption maxima is 502 nm under setting [1] and 501 nm under setting [2]. The same compound registered an Emission maxima under setting [1] of 511 nm and an Emission maxima under setting [2] of 511 nm. This compound showed a Quantum yield (CH2Cl2 solution) of 71.5% and a Quantum yield (DMF solution) of 55.3%.

For `CC1=C(I)C(C)=[N+]2C1=C(c1c(C)cccc1C)c1c(C)c(I)c(C)n1[B-]2(F)F` [Compound 19, 4,4-Difluoro-8-(2,6-dimethylphenyl)-2,6-diiodo-1,3,5,7-tetramethyl-4-bora-3a,4a-diaza-s-indacene], the Absorption maxima was 535 nm under setting [1] and 536 nm under setting [2]. The compound also came in with an Emission maxima under setting [1] of 549 nm and an Emission maxima under setting [2] of 552 nm. Further, the Quantum yield reads like this: (CH2Cl2 solution) 8.64%; (DMF solution) 4.4%.

`COc1cc(C2=C3C(C)=C(I)C(C)=[N+]3[B-](F)(F)n3c(C)c(I)c(C)c32)cc(OC)c1OC` [Compound 10, 4,4-Difluoro-8-(3,4,5-trimethoxyphenyl)-2,6-diiodo-1,3,5,7-tetramethyl-4-bora-3a,4a-diaza-s-indacene]: the Absorption maxima is, setting by setting: under setting [1], 535 nm; under setting [2], 534 nm. The Emission maxima came to 549 nm under setting [1] and 551 nm under setting [2]. In addition, the Quantum yield stood at 7.52% (CH2Cl2 solution) and 3.4% (DMF solution).
